Experimental data as given in patent US5100892A, “Dihydropyridine vasodilator agents” (Glaxo Inc., priority 1990, dated 1992).

Tests used:
rat aorta = assay: Rat Aorta Protocol: relaxation of phenylephrine-contracted rings of rat aorta (endothelium removed)
Protocol: Rings of rat aorta (endothelium removed) were prepared for the measurement of isometric force in isolated tissue organ chambers essentially as previously described by T. J. Rimele et al in the Journal of Pharmacol. Exp. Ther. 245:102-111 (1988). The experimental portion of the protocol began with the addition of methylene blue (1×10^-5 M) and propranolol (1×10^-6 M) to each organ chamber to inhibit basal cGMP accumulation due to soluble guanylate cyclase and beta-adrenoceptors.Phenylephrine (1×10^-7 M) was then added and the rings were allowed to obtain a stable contractile response after which time, the test compound was added in a cumulative fashion. The relaxation induced by each concentration of the test compound was expressed as a percentage of the maximal relaxation produced by nitroprusside (1×10^-4 M) The results were graphically represented as a plot of the percentage relaxation vs. the negative log of the molar concentration of the test compound. The IC50 (concentration of test compound which produced a relaxation equivalent to 50% of the maximal relaxation induced by nitroprusside) was determined for each tissue.

[1] = system: Spontaneously Hypertensive Rats; assay: Spontaneously Hypertensive Rat (SHR) Test, hemodynamics in anesthetized rats; type: in vivo, Spontaneously Hypertensive Rat (Sprague Dawley); conditions: for HR (Heart Rate: change from basal) / LVPT (time for Left Ventricular Pressure to decay from peak to 50%, % of basal) / MBP (Mean Blood Pressure: change from basal) / RT64 (change in time from maximal relaxation, % of basal) / dP/dT40 (change in rate of systolic pressure increase of left ventricle measured at 40 mm Hg from basal): anesthetized SHR; for effect on blood pressure (in words) / effect on dP/dT40 (in words) / effect on heart rate (in words) / effect on myocardial relaxation time constants (in words): SHR
Protocol: Male Retired Breeder Spontaneously Hypertensive Rats (SHR) (Sprague Dawley, 250-350 g) are anesthetized by i.p. injection of Sodium Thiopental 50 mg/kg. A catheter is inserted into the duodenum for maintenance of anesthesia throughout the experiment. A tube is inserted through a lateral incision in the trachea. The left carotid artery is exposed and a Millar SPR-249 (2-F) pressure probe is inserted and passed into the left ventricle of the heart. Left ventricular pressure (LVP), the first differential of the LVP (+dP/dT,-dP/dT), the left ventricular end diastolic pressure (LVEDP) and the differential of the increase in LVP measured at a constant pressure of 40 mm Hg (dP/dT40) are measured via this probe. In addition to these parameters, two indices of myocardial diastolic relaxation are measured namely the RT64 (time in msec from the peak derivative of maximal relaxation to 64% of that value) and the Left Ventricular Pressure Time Constant (LVPT), the half-time for decay of the LVP from peak pressure to 50% of that pressure. […] Results also are shown graphically on a Gould RS3800 Recorder. A saline filled cannula is passed into the femoral vein for infusion of drugs and one is placed into the femoral artery for measurement and recording or arterial blood pressure (Statham P23Db pressure transducer). From this signal the diastolic, systolic and mean blood pressure are derived as well as the heart rate. After surgery, the preparation is left to stabilize for 45 minutes after which compounds, dissolved in polyethylene glycol, are slowly infused with a Sage Instruments Infusion pump into the femoral vein. […] After completion of the last infusion, hemodynamic parameters are observed over 30 min and then a standard dose of 3.0 mg/kg milrinone is infused (over 5 min) to test preparation responsiveness. In the SHR, the following results were obtained for several known cardiovascular agents and for the compound of Examples 10,11,15 and 16.

Row | Compound | HR (Heart Rate: change from basal) ([1]; 0.3 mg/kg i.v.) [%] | LVPT (time for Left Ventricular Pressure to decay from peak to 50%, % of basal) ([1]; 0.3 mg/kg i.v.) [%] | MBP (Mean Blood Pressure: change from basal) ([1]; 0.3 mg/kg i.v.) [%] | RT64 (change in time from maximal relaxation, % of basal) ([1]; 0.3 mg/kg i.v.) [%] | dP/dT40 (change in rate of systolic pressure increase of left ventricle measured at 40 mm Hg from basal) ([1]; 0.3 mg/kg i.v.) [%] | HR (Heart Rate: change from basal) ([1]; 1.0 mg/kg i.v.) [%] | LVPT (time for Left Ventricular Pressure to decay from peak to 50%, % of basal) ([1]; 1.0 mg/kg i.v.) [%] | MBP (Mean Blood Pressure: change from basal) ([1]; 1.0 mg/kg i.v.) [%] | RT64 (change in time from maximal relaxation, % of basal) ([1]; 1.0 mg/kg i.v.) [%] | dP/dT40 (change in rate of systolic pressure increase of left ventricle measured at 40 mm Hg from basal) ([1]; 1.0 mg/kg i.v.) [%] | HR (Heart Rate: change from basal) ([1]; 3.0 mg/kg i.v.) [%] | LVPT (time for Left Ventricular Pressure to decay from peak to 50%, % of basal) ([1]; 3.0 mg/kg i.v.) [%] | MBP (Mean Blood Pressure: change from basal) ([1]; 3.0 mg/kg i.v.) [%] | RT64 (change in time from maximal relaxation, % of basal) ([1]; 3.0 mg/kg i.v.) [%] | dP/dT40 (change in rate of systolic pressure increase of left ventricle measured at 40 mm Hg from basal) ([1]; 3.0 mg/kg i.v.) [%] | HR (Heart Rate: change from basal) ([1]; 10 mg/kg i.v.) [%] | LVPT (time for Left Ventricular Pressure to decay from peak to 50%, % of basal) ([1]; 10 mg/kg i.v.) [%] | MBP (Mean Blood Pressure: change from basal) ([1]; 10 mg/kg i.v.) [%] | RT64 (change in time from maximal relaxation, % of basal) ([1]; 10 mg/kg i.v.) [%] | dP/dT40 (change in rate of systolic pressure increase of left ventricle measured at 40 mm Hg from basal) ([1]; 10 mg/kg i.v.) [%] | also measured
1 | COC(=O)C1=C(C)NC(C)=C(C(=O)OCCNC(=O)COc2ccc(-c3cc(C#N)c(=O)[nH]c3C)cc2)C1c1cccc([N+](=O)[O-])c1 (racemic) [Example 10, (±)-2,6-dimethyl-3-carbomethoxy-4-(3-nitrophenyl)-5-{4-[1,2-dihydro-2-oxo-3-cyano-6-methyl-5(1H)-pyridy]phenoxymethylenecarboxyamidoethyloxycarbonyl}-1,4-dihydropyridine] | -1.8 | -5.1 | -2.6 | -2.6 | 0 | -2.5 | -7.4 | -3.8 | -5.2 | 1.5 | 1.1 | -14 | -6.3 | -13.2 | 4.2 | 6.4 | -25 | -23 | -19.3 | 24.7 | Emax at 100 µM (rat aorta; highest dose tested (100 micromolar), read-out: maximal response (relaxation, % of maximal relaxation by nitroprusside)): 96%; IC50 (rat aorta; phenylephrine 1×10^-7 M contracted, methylene blue and propranolol present, read-out: IC50 (concentration producing relaxation equivalent to 50% of the maximal relaxation induced by nitroprusside)): 2100 nM; effect on blood pressure (in words) ([1]; 0.3 to 10 mg/kg i.v.): hypotension; effect on dP/dT40 (in words) ([1]; 0.3 to 10 mg/kg i.v.): an increase in dP/dT40; effect on heart rate (in words) ([1]; 0.3 to 10 mg/kg i.v.): little change in heart rate; effect on myocardial relaxation time constants (in words) ([1]; 0.3 to 10 mg/kg i.v.): reduction in the time constants for myocardial relaxation
2 | NNc1nncc2ccccc12 [Hydralazine] | 0 | 4.1 | -1.2 | 2 | 0 | 8 | 2.3 | -17.8 | 0 | 3.4 | 8.8 | -7.8 | -37.5 | -12.5 | 0 | 17 | -21.9 | -48 | -22.6 | 6.9 | effect on blood pressure (in words) ([1]; 0.3 to 10 mg/kg i.v.): hypotension; effect on dP/dT40 (in words) ([1]; 0.3 to 10 mg/kg i.v.): little change in dP/dT40; effect on heart rate (in words) ([1]; 0.3 to 10 mg/kg i.v.): reflex tachycardia; effect on myocardial relaxation time constants (in words) ([1]; 0.3 to 10 mg/kg i.v.): reduction in myocardial relaxation time constants only at 3 and 10 mg/kg
3 | Cc1[nH]c(=O)c(C#N)cc1-c1ccncc1 [Milrinone] | 10 | -15.5 | -10 | -13.7 | 27 | 12.4 | -22 | -29 | -20.5 | 28.3 | 16.2 | -30 | -29 | -36 | 34 |  |  |  |  |  | effect on blood pressure (in words) ([1]; 0.3 to 3 mg/kg i.v.): hypotension; effect on dP/dT40 (in words) ([1]; 0.3 to 3 mg/kg i.v.): an increase in dP/dT40; effect on heart rate (in words) ([1]; 0.3 to 3 mg/kg i.v.): tachycardia; effect on myocardial relaxation time constants (in words) ([1]; 0.3 to 3 mg/kg i.v.): a decrease in myocardial relaxation time constants (increased rate of relaxation)
4 | COC(=O)C1=C(C)NC(C)=C(C(=O)OC)C1c1ccccc1[N+](=O)[O-] [Nifedipine] | 1 | 3 | -30 | -7 | 2 | -5 | -7 | -47.5 | -21 | -15.5 | -7.5 | -18.5 | -47.5 | -25 | -28.8 |  |  |  |  |  | HR (Heart Rate: change from basal) ([1]; 0.1 mg/kg i.v.): 3%; LVPT (time for Left Ventricular Pressure to decay from peak to 50%, % of basal) ([1]; 0.1 mg/kg i.v.): -8%; MBP (Mean Blood Pressure: change from basal) ([1]; 0.1 mg/kg i.v.): -12%; RT64 (change in time from maximal relaxation, % of basal) ([1]; 0.1 mg/kg i.v.): -7%; dP/dT40 (change in rate of systolic pressure increase of left ventricle measured at 40 mm Hg from basal) ([1]; 0.1 mg/kg i.v.): 7.5%; effect on blood pressure (in words) ([1]; 0.1 to 3 mg/kg i.v.): hypotension; effect on dP/dT40 (in words) ([1]; 0.1 to 3 mg/kg i.v.): a depression of dP/dT40; effect on heart rate (in words) ([1]; 0.1 to 3 mg/kg i.v.): little change in heart rate; effect on myocardial relaxation time constants (in words) ([1]; 0.1 to 3 mg/kg i.v.): significant reduction of myocardial relaxation time constants only at the highest dose tested (3 mg/kg)
